{
  "source": "patent US11878955B1",
  "about": "“3,3′,3″-nitrilotris(1-(naphthalen-2-yloxy)propan-2-ol) as an eco-friendly insecticidal agent against Spodoptera littoralis (boisd.)” (priority 2023, dated 2024)",
  "system": "Spodoptera littoralis larvae (2nd and 4th instars)",
  "test": "Insecticidal bioassay screening (castor leaf dip)",
  "assay_type": "in vivo",
  "details": "for LC50 (ppm): after 72 h of treatment; for Toxic ratio: 72 h, fenoxycarb's LC50 / the compound's LC50 × 100",
  "protocol": "Five concentrations (200, 100, 50, 25, 12.5 ppm) were designed for this synthetic compound and the reference fenoxycarb compound as the dynamic ingredients based on ppm via diluting the commercial formulation.\nIn this experiment, castor leaves are immersed in each of the previously prepared concentrations of the components for 10 seconds and then left to dry for 60 minutes. Larvae of the second and fourth instars of each checked strain are prepared with treated leaves in gauze-covered glass containers for 72 hrs. An untreated control is made in which leaves are dipped in triton x-100 and distilled water only. Then the preserved leaves were removed & fresh, untreated leaves were provided for 72 hours. Three replicates (10 larvae each) were checked for each concentration. Daily inspection was carried out for all treatments and mortality percentages were recorded 3 days (72 hours) after treatment. The average mortality percentage was corrected employing Abbott's formula. The corrected mortality rate for each of the previously synthesized compounds is statistically calculated according to Finney (1970). Through this rate, the corresponding concentration test lines (LDP lines) are assessed. Fifty and ninety percent mortality are determined, and the regression values for the checked products were previously evaluated.",
  "data": [
    {"smiles": "CCOC(=O)NCCOc1ccc(Oc2ccccc2)cc1", "note": "[Fenoxycarb, reference compound]", "values": [
      {"measurement": "LC50 (ppm)", "setting": "2nd instar larvae of S. littoralis", "value": 2.73, "unit": "ppm"},
      {"measurement": "Toxic ratio", "setting": "2nd instar larvae", "value": 100},
      {"measurement": "LC50 (ppm)", "setting": "4th instar larvae of S. littoralis", "value": 43.231, "unit": "ppm"},
      {"measurement": "Toxic ratio", "setting": "4th instar larvae", "value": 100},
      {"measurement": "LC50", "setting": "Spodoptera littoralis, foliar", "value": 2.73, "unit": "µg/mL"}
    ]}
  ]
}
